The source of these data is patent publication US20240082263A1, “PHARMACEUTICAL COMPOSITION FOR COMBINATION THERAPY COMPRISING MELATONIN AND PROSTAGLANDIN E2 FOR TREATING INTESTINAL EPITHELIAL INJURY AS AN ACTIVE INGREDIENT” (PUSAN NATIONAL UNIVERSITY INDUSTRY-UNIVERSITY COOPERATION …, priority 2022, published 2024).

Common to all, as to assay type: cell-based
In assay [1] the test system is mouse small intestine epithelial organoids. Briefly: Flow cytometry of Ly6a-expressing cells in organoids. The following applies: FIG. 2; for revival stem cell induction (ratio of Ly6a-expressing cells): flow cytometry, 2-iodomelatonin 200 μM, 8M-PDOT 200 μM, Butaprost 10 μM, Cay10598 10 μM, 5 days; for effect of receptor inhibitor on induction of revival stem cells: co-treated to PGE2 alone group and 8M-PDOT and PGE2 combined group, L-161,982 10 μM, PF-04418948 20 μM. The protocol:
(§1) Mouse-derived small intestinal epithelial organoids were obtained as follows. First, small intestine tissue (duodenum about 10-15 cm) was isolated from 8-week-old C57BL/6N mice, and the intestinal lumen was washed with PBS using a 1 ml pipette tip, and the tissue was opened with the lumen facing up, and the remaining mucus, food, and intestinal villi were scraped off and removed. Thereafter, about 25 ml of PBS was filled in a 50 ml tube, and the intestinal tissue was cut to a length of about 2 to 4 mm and washed by shaking vigorously (repeated about 3 to 4 times). The washed intestinal tissue was suspended in 20 ml of Gentle cell dissociation reagent (100-0485, stemcell technologies) and reacted for 15 to 20 minutes while shaking at 20 rpm at room temperature. After the reaction was completed, crypts were separated from the intestinal tissue by vortexing at maximum speed for 5 seconds, and the tissue was removed and centrifuged at 290 g for 5 minutes. The collected cell pellet was resuspended in 10 ml of PBS, centrifuged at 290 g for 5 minutes, and then the cell pellet was suspended in DMEM/F12 medium to confirm the number of crypts. About 500 crypts per 24 well are mixed with 20 μl of cell culture medium (IntestiCult™ Organoid Growth Medium for Mouse, 05005, stemcell technologies) and 20 μl of Matrigel (354230, corning), planted in a dome shape in the center of the well, and placed in a cell culture incubator. After standing for 10 minutes and waiting for the gel to harden, 750 μl of IntestiCult was added and cultured.
In addition, changes in the percentage of cells expressing Ly6a, a specific marker for revival stem cells, were evaluated by flow cytometry. For flow cytometry, mouse small intestine epithelial organoids were treated with melatonin (500 μM) and PGE2 (100 nM) alone or in combination for 5 days, and the organoids were reacted with TrypLE™ Express Enzyme (Thermo Fisher) for 5 minutes at 37° C. to produce single cells. Thereafter, the Ly6a antibody (12-5981-82, Thermo Fisher) fluorescently labeled with PE was diluted 1:250 in PBS containing 3% BSA, and 200 μl of the diluted solution was mixed with the single celled sample and allowed to stand in a dark room at 4° C. for 1 hour. Then, each sample was washed with PBS (300 g, centrifuged for 5 minutes) and immediately analyzed with an Accuri C6 flow cytometer.
In order to further specify the mechanism of inducing revival stem cells, mouse-derived intestinal epithelial organoids were treated with a combination of various melatonin analogues and a specific agonist of the PGE2 receptor. […]

Assay [2] deals with Mouse-derived small intestinal epithelial organoids. Briefly: Microarray gene expression of revival stem cell markers in organoids. The following applies: melatonin 500 μm, PGE2 100 nM, alone or in combination, 5 days. The protocol: as §1
The obtained mouse-derived small intestinal epithelial organoids were treated with melatonin (500 μm, 14427, Cayman) and PGE2 (prostaglandin E2, 100 nM; 14010, Cayman) alone or in combination for 5 days, and microarray was performed to track gene expression changes. RNA was extracted from the organoids using the RNeasy Kit (Qiagen), cDNA was synthesized using the GeneChip WT (Whole Transcript) Amplification kit, and analyzed using the Clariom™ S Affymetrix GeneChip Array (Affymetrix).

In assay [3] the test system is Human-derived intestinal epithelial organoids. Briefly: Quantitative PCR of Clusterin (CLU) expression in organoids. The following applies: same concentrations as in the mouse experiment, FIG. 3. The protocol:
Human-derived intestinal epithelial organoids were treated with melatonin and its analogues and PGE2 to confirm whether revival stem cells were induced as observed in mouse intestinal organoids. In order to obtain intestinal epithelial organoids, donated human colon tissue was cut into a size of about 1 cm 2, placed in PBS containing gentamicin (10 μg/ml, Gibco), and allowed to stand at 4° C. for 30 minutes. Then, the tissue was taken out and the mucous layer was scraped off using forceps, and the process of shaking and washing in PBS was repeated 5 to 6 times, as in the case of mice. After washing, the tissue was put into 25 ml of Gentle cell dissociation reagent and reacted by shaking at 200 rpm for 20 minutes at 37° C. After vortexing at the maximum speed, the crypts were separated and cultured by washing in the same process as in mice. At this time, IntestiCult™ Organoid Growth Medium for Human (06010, stemcell technologies) was used as the culture medium. The obtained human intestinal epithelial organoids were treated alone or in combination with melatonin, 8M-PDOT, and PGE2 at the same concentrations as in the mouse experiment, and then the expression level of Clusterin (CLU) was compared through quantitative PCR. […]

In the case of `CCCC1([C@H](O)C/C=C/[C@H]2[C@H](O)CC(=O)[C@@H]2CCCCCCC(=O)OC)CCC1` [Butaprost], the “revival stem cell induction (ratio of Ly6a-expressing cells)” value in assay [1] is “did not show a specific induction effect”. Regarding `O=C1CC[C@H](/C=C/[C@@H](O)Cc2ccccc2)N1CCCCCCc1nn[nH]n1` [Cay10598], the “revival stem cell induction (ratio of Ly6a-expressing cells)” value in assay [1] is listed as “induction effect similar to or higher than that of PGE2”. On to `CCCCc1nn(-c2ccccc2C(F)(F)F)c(=O)n1Cc1ccc(-c2ccccc2S(=O)(=O)NC(=O)c2sccc2C)cc1` [L-161,982], for which, in assay [1], the “effect of receptor inhibitor on induction of revival stem cells” value is on record as “greatly suppressed”. Take `COc1ccc2cc(OCC3(C(=O)O)CN(C(=O)c4ccc(F)cc4)C3)ccc2c1` [PF-04418948]: the “effect of receptor inhibitor on induction of revival stem cells” value in assay [1] is “no effect”. Take `CCCCC[C@H](O)/C=C/[C@H]1[C@H](O)CC(=O)[C@@H]1C/C=C\CCCC(=O)O` [PGE2, prostaglandin E2]: in assay [2], the “Cldn4 expression FC (fold change) vs control” value is 1.9264, the “Clu expression FC (fold change) vs control” value is recorded as 1.7590 and the “Ly6a expression FC (fold change) vs control” value is 9.7349. Also, the CLU expression result in assay [3] is listed as “increased”. For `COc1ccc2[nH]cc(CCNC(C)=O)c2c1` [melatonin], in assay [2], the “Cldn4 expression FC (fold change) vs control” value is listed as 1.0013, the “Clu expression FC (fold change) vs control” value is on record as 1.2252 and the “Ly6a expression FC (fold change) vs control” value came out at 1.1646.
